The test system of assay [1] is Staphylococcus epidermidis. As to the kind of experiment: Antimicrobial activity against Staphylococcus epidermidis 13889. Type of assay: functional, organism-based.
The subject of assay [2] is Enterococcus faecalis. As to the kind of experiment: Antimicrobial activity against Enterococcus faecalis 12964. Format: functional, organism-based.
For assay [3], the system named is Staphylococcus aureus. Put plainly: Antimicrobial activity against Staphylococcus aureus 12732. Type of assay: functional, organism-based.
The test system of assay [4] is Staphylococcus aureus. Put plainly: Antimicrobial activity against methicillin-resistant Staphylococcus aureus. Type of assay: functional, organism-based.
For assay [5], the system named is Candida albicans. As to the kind of experiment: Antimicrobial activity against Candida albicans IFO 1269. Format: functional, organism-based.
Assay [6] relates to Cryptococcus neoformans. As to the kind of experiment: Antimicrobial activity against Cryptococcus neoformans TIMM 0354. Type of assay: functional, organism-based.
In assay [7] the test system is Enterococcus faecium. Put plainly: Antimicrobial activity against Enterococcus faecium 12367. Format: functional, organism-based.
In assay [8] the test system is Escherichia coli. As to the kind of experiment: Antimicrobial activity against Escherichia coli upto 12.5 ug/ml. Format: functional, organism-based.
For assay [9], the system named is Pseudomonas aeruginosa. Put plainly: Antimicrobial activity against Pseudomonas aeruginosa upto 12.5 ug/ml. Type of assay: functional, organism-based.
Assay [10] deals with Human immunodeficiency virus type 1 integrase (Human immunodeficiency virus 1) (UniProt Q7ZJM1). As to the kind of experiment: Inhibition of HIV1 integrase at 10 ug/ml.
Chain of Human immunodeficiency virus type 1 integrase (Human immunodeficiency virus 1) (Q7ZJM1 as listed by the source): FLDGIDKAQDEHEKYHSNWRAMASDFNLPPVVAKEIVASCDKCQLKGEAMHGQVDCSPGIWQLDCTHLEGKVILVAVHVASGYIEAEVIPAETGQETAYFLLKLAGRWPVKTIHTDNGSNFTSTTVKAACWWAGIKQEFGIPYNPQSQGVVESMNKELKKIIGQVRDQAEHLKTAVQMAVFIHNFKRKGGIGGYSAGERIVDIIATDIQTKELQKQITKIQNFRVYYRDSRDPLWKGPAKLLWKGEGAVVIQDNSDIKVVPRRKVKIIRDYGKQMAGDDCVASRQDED

Molecules are shown by their SMILES. In brackets after ≈: the same amount, converted by molar mass. Activity calls are given as the source filed them. No cut-off for these calls is given here.

Here are results for four compounds from ChEMBL document CHEMBL1150969, “New alkaloids from the papua new guinean sponge agelas nakamurai” (J Nat Prod, 1998).

The term IC50 denotes the concentration at which inhibition is half-maximal. As to `CC1=CCC[C@@H]2[C@@](C)(CC/C(C)=C/Cn3c[n+](C)c4ncnc(N)c43)[C@H](C)CC[C@@]12C.[Cl-]` [AGELASINE B], the IC50 in assay [1] is 1.56 µg/mL; in assay [2], 6.25 µg/mL; in assay [3], 0.78 µg/mL; in assay [4] it was 3.13 µg/mL; in assay [5], over 12.5 µg/mL; in [6], 3.13 µg/mL. Further, the IC50 in assay [7] worked out at 3.13 µg/mL.

`NC(=O)c1ccc(Br)[nH]1`: the IC50 in assay [1] came to 3.13 µg/mL (≈ 16.6 µM); in [2] it was 6.25 µg/mL (≈ 33.1 µM); in assay [3], 0.78 µg/mL (≈ 4.13 µM); in [4], 3.13 µg/mL (≈ 16.6 µM); in assay [5], 6.25 µg/mL (≈ 33.1 µM); in [6], 3.13 µg/mL (≈ 16.6 µM). In addition, in assay [7], the IC50 worked out at 3.13 µg/mL (≈ 16.6 µM). Also, the result in assay [8], in assay [9] and in [10] was inactive.

Turning to `C=C1CC[C@]2(C)[C@@H](C)CCC[C@]2(C)[C@H]1CC/C(C)=C/Cn1c[n+](C)c2ncnc(N)c21`, the result in assay [8], in assay [9] and in [10] was inactive.

Regarding `COCNC(=O)c1ccc(Br)[nH]1`, the outcome in assay [8], in assay [9] and in assay [10] was inactive.
